Data taken from patent publication US6428974B1, “Microplate for drug susceptibility testing containing a drug, a color reagent, and color suppressant” (Kanto Kagaku Kabushiki Kaisha, priority 1998, dated 2002).
Values after ≈ are worked out from the molar mass of the structure shown.

How the values were obtained:
[1] = tested on: Candida parapsilosis ATCC 22019; details: C. parapsilosis ATCC 22019; MIC acceptable range of NCCLS M27-A; cited from earlier work
[2] = tested on: Candida albicans ATCC 24433; details: C. albicans ATCC 24433; MIC acceptable range of NCCLS M27-A; cited from earlier work
[3] = tested on: Candida parapsilosis ATCC 90018; details: C. parapsilosis ATCC 90018; MIC acceptable range of NCCLS M27-A; cited from earlier work
[4] = tested on: Candida albicans ATCC 90028; test: Turbidity method (Japanese Society for Medical Mycology microdilution); type: cell-based; details: C. albicans ATCC 90028, range over repeated tests (n = 10); for MIC: Candida albicans, ATCC90028
Protocol: (§1) For the comparison was used the 1.2% glucose MOPS buffered RPMI 1640medium and it was carried out according to the proposed method of Japanese Society for Medical Mycology (the microdilution method of 0.2 ml incubation system).

[5] = tested on: Candida parapsilosis ATCC 22019; test: as above; type: cell-based; details: C. parapsilosis ATCC 22019, range over repeated tests (n = 10); for MIC: Lodderomyces parapsilosis, ATCC22019
Protocol: as §1

Candida krusei ATCC 6258 [6] = test: as above; type: cell-based; details: C. krusei ATCC 6258, range over repeated tests (n = 10); for MIC: Pichia kudriavzevii, ATCC6258
Protocol: as §1

[7] = tested on: Candida tropicalis ATCC 750; test: as above; type: cell-based; details: C. tropicalis ATCC 750, range over repeated tests (n = 10); for MIC: Candida tropicalis, ATCC750
Protocol: as §1

[8] = tested on: Candida albicans ATCC 24433; test: as above; type: cell-based; details: C. albicans ATCC 24433, range over repeated tests (n = 10); for MIC: Candida albicans, ATCC24433
Protocol: as §1

[9] = tested on: Candida parapsilosis ATCC 90018; test: as above; type: cell-based; details: C. parapsilosis ATCC 90018, range over repeated tests (n = 7); for MIC: Lodderomyces parapsilosis, ATCC90018
Protocol: as §1

[10] = tested on: Candida tropicalis ATCC 750; details: C. tropicalis ATCC 750; MIC acceptable range of NCCLS M27-A; cited from earlier work
[11] = tested on: Candida albicans ATCC 90028; details: C. albicans ATCC 90028; MIC acceptable range of NCCLS M27-A; cited from earlier work
Candida krusei ATCC 6258 [12] = details: C. krusei ATCC 6258; MIC acceptable range of NCCLS M27-A; cited from earlier work
[13] = tested on: Candida albicans ATCC 90028; test: Microplate method of the invention (WST-8 color reagent); type: cell-based; details: C. albicans ATCC 90028, range over repeated tests (n = 10), AMPH complete inhibition, 5-FC/FLCZ/MCZ IC80, 24 or 48 hrs, 35°C; for MIC: Candida albicans, ATCC90028
Protocol: (§2) Four drugs of AMPH, 5-FC, FLCZ and MCZ were considered. The drug solution for the solid phase formation on the microplate was prepared as follows. The drug was dissolved in dimethylsulfoxide (DMSO) or diluted by using it. The solution was prepared so that it was AMPH 128 μg/ml, 5-FC 512 μg/ml, FLCZ 512 μg/ml or MCZ 256 μg/ml. By the use of the prepared drug the two fold dilution series was prepared in an appropriate concentration range with DMSO or water, and separately infused by 25 μl/well and formed into the dry and solid phase under vacuum (13.3-26.6 Pa) for 24 hrs. After the solid phase formation of the antifungal, the color reagent consisting of WST-8 0.7 mM, 1-methoxy PMS 3.5 μM, potassium ferricyanide 0.5 mM and potassium ferrocyanide 0.5 mM was separately infused by 20 μl/well and formed into the dry and solid phase under vacuum for 24 hrs.
(§3) By using the colony within 24 hrs. in the incubation was prepared the fungal suspension with the sterile saline 5 ml. The fungal suspension corresponding to McFarland # 0.5 was prepared by measuring the absorbancy at the wave length of 530 nm. 0.1 ml of the prepared fungal suspension was taken by the micropipette, added to 0.9 ml of the 1.2% glucose MOPS buffered PRMI 1640 medium, and stirred thoroughly by the vortex-mixer, and then 0.1 ml of this was taken by the micropipette, added to 20 ml of the […] MOPS buffered PRMI 1640 medium, and stirred thoroughly by the vortex-mixer to prepare the replicated fungal suspension (0.5×10^3−2.5×10^3 cfu/ml). The replicated fungal suspension prepared was separately inoculated by 200 μl into each well of the microplate dryly fixed with the drug having the concentration gradient of the two fold dilution prepared in the above B. After lidding the plate the aerobic culture was done at 35±1° C. The absorbancy at 630 nm of the growth control (the testing fungal strains were incubated in the well wherein the antifungal agents and the color reagent was not formed into the solid phase) after the 24 hrs. incubation was measured.
(§4) After stirring the microplate under shaking for 1 min., the absorbency of the dominant wave length 450 nm and the complementary wavelength 630 nm was measured, and the reading was carried out by the following method.
(§5) 1. The minimum concentration showing the absorbancy in AMPH equal to or less than that in the negative control was made the minimum growth inhibition concentration (MIC).
(§6) 2. The 80% growth inhibition concentration (IC 80) was read in 5-Fc, FLCZ and MCZ. The drug concentration of the well showing the absorbancy equal to or less than the absorbency obtained by the following equation was made MIC.
(§7) (IC80=(positive control−negative control)×0.2 +negative control)

[14] = tested on: Candida parapsilosis ATCC 22019; test: as above; type: cell-based; details: C. parapsilosis ATCC 22019, range over repeated tests (n = 10), AMPH complete inhibition, 5-FC/FLCZ/MCZ IC80, 24 or 48 hrs, 35°C; for MIC: Lodderomyces parapsilosis, ATCC22019
Protocol: as §2, §3, §4, §5, §6, §7

Candida krusei ATCC 6258 [15] = test: as above; type: cell-based; details: C. krusei ATCC 6258, range over repeated tests (n = 10), AMPH complete inhibition, 5-FC/FLCZ/MCZ IC80, 24 or 48 hrs, 35°C; for MIC: Pichia kudriavzevii, ATCC6258
Protocol: as §2, §3, §4, §5, §6, §7

[16] = tested on: Candida tropicalis ATCC 750; test: as above; type: cell-based; details: C. tropicalis ATCC 750, range over repeated tests (n = 10), AMPH complete inhibition, 5-FC/FLCZ/MCZ IC80, 24 or 48 hrs, 35°C; for MIC: Candida tropicalis, ATCC750
Protocol: as §2, §3, §4, §5, §6, §7

[17] = tested on: Candida albicans ATCC 24433; test: as above; type: cell-based; details: C. albicans ATCC 24433, range over repeated tests (n = 10), AMPH complete inhibition, 5-FC/FLCZ/MCZ IC80, 24 or 48 hrs, 35°C; for MIC: Candida albicans, ATCC24433
Protocol: as §2, §3, §4, §5, §6, §7

[18] = tested on: Candida parapsilosis ATCC 90018; test: as above; type: cell-based; details: C. parapsilosis ATCC 90018, range over repeated tests (n = 7), AMPH complete inhibition, 5-FC/FLCZ/MCZ IC80, 24 or 48 hrs, 35°C; for MIC: Lodderomyces parapsilosis, ATCC90018
Protocol: as §2, §3, §4, §5, §6, §7

Nc1[nH]c(=O)ncc1F [5-FC, Flucytosine]
MIC reference range [1]: 0.12 to 0.5 µg/mL
MIC reference range [2]: 1.0 to 4.0 µg/mL
MIC reference range [3]: 0.12 to 0.25 µg/mL
MIC [4]: 0.25 to 2 µg/mL (≈ 1.94 to 15.5 µM)
MIC [5]: 0.12 to 0.5 µg/mL (≈ 0.93 to 3.87 µM)
MIC (Candida krusei ATCC 6258 [6]): 8 to 16 µg/mL (≈ 62 to 124 µM)
MIC [7]: 0.12 µg/mL (≈ 0.93 µM)
MIC [8]: 0.5 to 2 µg/mL (≈ 3.87 to 15.5 µM)
MIC [9]: 0.12 µg/mL (≈ 0.93 µM)
MIC reference range [10]: 0.12 to 0.25 µg/mL
MIC reference range [11]: 0.5 to 2.0 µg/mL
MIC reference range (Candida krusei ATCC 6258 [12]): 4.0 to 16 µg/mL
MIC [13]: 0.25 to 1 µg/mL (≈ 1.94 to 7.75 µM)
MIC [14]: 0.12 to 0.5 µg/mL (≈ 0.93 to 3.87 µM)
MIC (Candida krusei ATCC 6258 [15]): 8 to 16 µg/mL (≈ 62 to 124 µM)
MIC [16]: 0.12 µg/mL (≈ 0.93 µM)
MIC [17]: 0.5 to 2 µg/mL (≈ 3.87 to 15.5 µM)
MIC [18]: 0.12 µg/mL (≈ 0.93 µM)

C[C@@H]1[C@H](O)[C@@H](C)/C=C/C=C/C=C/C=C/C=C/C=C/C=C/[C@H](O[C@@H]2O[C@H](C)[C@@H](O)[C@H](N)[C@@H]2O)C[C@@H]2O[C@](O)(C[C@@H](O)C[C@@H](O)[C@H](O)CC[C@@H](O)C[C@@H](O)CC(=O)O[C@H]1C)C[C@H](O)[C@H]2C(=O)O [AMPH, Amphotericine B]
MIC reference range [1]: 0.25 to 1.0 µg/mL
MIC reference range [2]: 0.25 to 1.0 µg/mL
MIC reference range [3]: 0.5 to 2.0 µg/mL
MIC, Turbidity method [4]: 0.12 to 0.5 µg/mL
MIC, Turbidity method [5]: 0.06 to 0.25 µg/mL
MIC, Turbidity method (Candida krusei ATCC 6258 [6]): 0.12 to 0.5 µg/mL
MIC, Turbidity method [7]: 0.12 to 0.5 µg/mL
MIC, Turbidity method [8]: 0.12 to 0.5 µg/mL
MIC, Turbidity method [9]: 0.12 to 0.25 µg/mL
MIC reference range [10]: 0.5 to 2.0 µg/mL
MIC reference range [11]: 0.5 to 2.0 µg/mL
MIC reference range (Candida krusei ATCC 6258 [12]): 0.5 to 2.0 µg/mL
MIC, Method of the invention [13]: 0.12 to 0.5 µg/mL
MIC, Method of the invention [14]: 0.12 to 1.0 µg/mL
MIC, Method of the invention (Candida krusei ATCC 6258 [15]): 0.25 to 0.5 µg/mL
MIC, Method of the invention [16]: 0.12 to 0.5 µg/mL
MIC, Method of the invention [17]: 0.12 to 0.5 µg/mL
MIC, Method of the invention [18]: 0.12 to 0.25 µg/mL

OC(Cn1cncn1)(Cn1cncn1)c1ccc(F)cc1F [FLCZ, Fluconazole]
MIC reference range [1]: 2.0 to 8.0 µg/mL
MIC reference range [2]: 0.25 to 1.0 µg/mL
MIC reference range [3]: 0.25 to 1.0 µg/mL
MIC [4]: 0.12 to 0.25 µg/mL (≈ 0.392 to 0.816 µM)
MIC [5]: 1 to 2 µg/mL (≈ 3.27 to 6.53 µM)
MIC (Candida krusei ATCC 6258 [6]): 8 to 64 µg/mL (≈ 26.1 to 209 µM)
MIC [7]: 0.5 to 1 µg/mL (≈ 1.63 to 3.27 µM)
MIC [8]: 0.12 to 1 µg/mL (≈ 0.392 to 3.27 µM)
MIC [9]: 0.5 µg/mL (≈ 1.63 µM)
MIC reference range [10]: 1.0 to 4.0 µg/mL
MIC reference range [11]: 0.25 to 1.0 µg/mL
MIC reference range (Candida krusei ATCC 6258 [12]): 16 to 64 µg/mL
MIC [13]: 0.25 to 1 µg/mL (≈ 0.816 to 3.27 µM)
MIC [14]: 2 to 4 µg/mL (≈ 6.53 to 13.1 µM)
MIC (Candida krusei ATCC 6258 [15]): 16 to 64 µg/mL (≈ 52.2 to 209 µM)
MIC [16]: 0.5 to 2 µg/mL (≈ 1.63 to 6.53 µM)
MIC [17]: 0.25 to 8 µg/mL (≈ 0.816 to 26.1 µM)
MIC [18]: 0.5 to 2 µg/mL (≈ 1.63 to 6.53 µM)

Clc1ccc(COC(Cn2ccnc2)c2ccc(Cl)cc2Cl)c(Cl)c1 (stereo not drawn) [MCZ, Miconazole]
MIC [4]: 0.06 to 0.12 µg/mL (≈ 0.144 to 0.288 µM)
MIC [5]: 0.25 to 0.5 µg/mL (≈ 0.601 to 1.2 µM)
MIC (Candida krusei ATCC 6258 [6]): 0.25 to 1 µg/mL (≈ 0.601 to 2.4 µM)
MIC [7]: 0.12 to 1 µg/mL (≈ 0.288 to 2.4 µM)
MIC [8]: 0.06 to 0.5 µg/mL (≈ 0.144 to 1.2 µM)
MIC [9]: 0.06 to 0.25 µg/mL (≈ 0.144 to 0.601 µM)
MIC [13]: 0.06 to 0.12 µg/mL (≈ 0.144 to 0.288 µM)
MIC [14]: 0.5 to 1 µg/mL (≈ 1.2 to 2.4 µM)
MIC (Candida krusei ATCC 6258 [15]): 0.25 to 1 µg/mL (≈ 0.601 to 2.4 µM)
MIC [16]: 0.25 to 2 µg/mL (≈ 0.601 to 4.81 µM)
MIC [17]: 0.06 to 1 µg/mL (≈ 0.144 to 2.4 µM)
MIC [18]: 0.12 to 0.5 µg/mL (≈ 0.288 to 1.2 µM)
